Source: patent US8222202B2 (priority 2006, dated 2012)
Like-named read-outs stand apart in the source and are kept apart here. Starred links: 1 amine or outer side, 2 acyl side, 3 side chain; linkers in the order of their positions; H or OH if unused. Positions of bridges follow the written chain, without caps; N, C: chain ends. Non-standard residues stand in square brackets, D forms with d. Residues, ends and D or L forms follow the SMILES beside them. *: point of attachment. Orn(Me) = CN(CCC[C@H](N[*:1])C(=O)[*:2])[*:3]; Ala(2-furyl) = N[C@@H](Cc1ccco1)C(=O)O; X2 = CONC(=O)CC[C@H](N[*:1])C(=O)[*:2]; Orn(iPr) = CC(C)NCCC[C@H](N)C(=O)O; X1 = CCNCCC[C@H](N[*:1])C(=O)[*:2]; Orn(Pr) = CCCNCCC[C@H](N)C(=O)O; 2Thi = N[C@@H](Cc1cccs1)C(=O)O; 3Thi = N[C@@H](Cc1ccsc1)C(=O)O; Aad = N[C@@H](CCCC(=O)O)C(=O)O; NH(3-hydroxypropyl) = OCCCN*; Orn = NCCC[C@H](N)C(=O)O; Dab = NCC[C@H](N)C(=O)O

Legend:
[1] = molecular target: T1, hV1a receptor (Homo sapiens, UniProt P37288); assay: hV1a receptor transcriptional reporter (luciferase) agonist assay; format: cell-based
T1 construct: expressed in transfected cells; host or cells: HEK-293
Protocol: (§1) Agonist activity of compounds on the hV1a receptor was determined in a transcriptional reporter assay by transiently transfecting a hV1a receptor expression DNA into HEK-293 cells in concert with a reporter DNA containing intracellular calcium responsive promoter elements regulating expression of firefly luciferase. See Boss, V., Talpade, D. J., Murphy, T. J. J. Biol. Chem. 1996, May 3; 271(18), 10429-10432 for further guidance on this assay. […] To determine selectivity, compounds were tested in luciferase-based transcriptional reporter assays expressing the human oxytocin (hOT) receptor. Assays for other receptors (hV2, hV1b, rat V1a and rat V2) were also conducted.
(§2) The EC50 value given is the geometric mean expressed in nanomol/L (nM). Selectivity values are given as EC50 ratios.

[2] = system: anaesthetised Sprague-Dawley male rats; assay: in vivo duration of action, blood pressure test in anaesthetised rats; set-up: species or system rat; details: ratio of decay rate of diastolic blood pressure response, AVP 0.1 nmol/kg i.v. to equieffective dose of compound; dibenamine-pretreated rats
Protocol: Blood pressure tests were carried out on anaesthetised Sprague-Dawley male rats (weighing 270-300 g) with catheterised jugular vein and carotid artery. The catheterised carotid artery was used to continuously monitor blood pressure and the jugular vein was used for administration of the compounds tested. Rats received intravenous injections of dibenamine prior to dosing to enhance their responsiveness to V1a receptor agonists (cf. Dekanski, J., Br. J. Pharmacol. 1952, 7, 567-572). […] Dosing intervals were set as time for the blood pressure to decrease to a stable baseline.
Determination of duration of action was based on the decay rate of diastolic arterial blood pressure transient increase. Specifically, for an exponential decay of plasma concentration, it can be shown that, if the response is measured beyond the distribution phase, the rate of decay near the EC50 is linear and inversely proportional to the elimination half-life (Rowland, M. and Tozer, T. in “Clinical Pharmacokinetics, Concepts and Applications”, 3rd ed., Lippincott Williams & Wilkins, Philadelphia, 1995).

[3] = molecular target: T2, human oxytocin (hOT) receptor (Homo sapiens, UniProt P30559); assay: luciferase-based transcriptional reporter assay, selectivity hOT versus hV1a; format: cell-based
T2 construct: expressed in transfected cells
T2 sequence (P30559 1-389): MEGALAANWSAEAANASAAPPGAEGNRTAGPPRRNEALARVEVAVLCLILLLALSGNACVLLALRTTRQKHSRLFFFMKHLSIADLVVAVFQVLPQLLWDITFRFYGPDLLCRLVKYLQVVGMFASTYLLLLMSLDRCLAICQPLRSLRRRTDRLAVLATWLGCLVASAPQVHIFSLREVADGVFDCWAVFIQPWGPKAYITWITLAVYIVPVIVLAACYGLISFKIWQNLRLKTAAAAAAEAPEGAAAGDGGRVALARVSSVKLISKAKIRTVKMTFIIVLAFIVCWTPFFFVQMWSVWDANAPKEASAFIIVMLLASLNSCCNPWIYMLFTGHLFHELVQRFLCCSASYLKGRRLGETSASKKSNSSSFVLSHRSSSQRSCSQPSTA
Protocol: as §1, §2

[4] = HEK-293 cells transiently transfected with hV1a receptor, 5 hours exposure, geometric mean, read-out: EC50 hV1a receptor
[5] = class symbol, agonist efficacy at hOT receptor compared to AVP

T1 sequence (P37288 whole entry): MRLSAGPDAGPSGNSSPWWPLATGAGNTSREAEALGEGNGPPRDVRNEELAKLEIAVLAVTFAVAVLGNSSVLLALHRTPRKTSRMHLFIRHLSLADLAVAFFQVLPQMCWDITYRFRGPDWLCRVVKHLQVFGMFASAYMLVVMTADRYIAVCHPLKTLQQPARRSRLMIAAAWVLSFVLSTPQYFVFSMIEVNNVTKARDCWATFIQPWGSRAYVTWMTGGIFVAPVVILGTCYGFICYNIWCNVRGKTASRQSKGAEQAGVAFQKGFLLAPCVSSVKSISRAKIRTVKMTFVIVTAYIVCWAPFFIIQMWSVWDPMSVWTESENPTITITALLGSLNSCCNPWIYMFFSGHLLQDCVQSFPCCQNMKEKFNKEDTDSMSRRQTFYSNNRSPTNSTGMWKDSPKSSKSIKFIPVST

EC50 [1, 4] | Molecule | EC50 [1] | in vivo duration relative to AVP [2] | selectivity hOT/hV1a [3] | selectivity hOT/hV1a ([3]; EC50 ratio) | selectivity hOT/hV1a [3, 5]
– | CC[C@H](C)[C@@H]1NC(=O)[C@H](Cc2ccccc2)NC(=O)[C@@H](N)CSSC[C@@H](C(=O)N2CCC[C@H]2C(=O)N[C@@H](CCCN)C(=O)NCC(N)=O)NC(=O)[C@H](CC(N)=O)NC(=O)[C@H](CC(=O)NCCCO)NC1=O [Compound 2] (H-CFID(NH(3-hydroxypropyl))NCP[Orn]G-NH2; disulfide 1-6) | 1.18 nM | 1.7 | + (key: +: selective hV1a receptor agonist; EC50 hOT/hV1a ratio not determined due to very low agonist efficacy (<30% compared to AVP) at the hOT receptor) | – | –
– | CC[C@H](C)[C@@H]1NC(=O)[C@H](Cc2ccccc2)NC(=O)[C@@H](N)CSSC[C@@H](C(=O)N2CCC[C@H]2C(=O)N[C@@H](CCN)C(=O)NCC(N)=O)NC(=O)[C@H](CC(N)=O)NC(=O)[C@H](CC(N)=O)NC1=O [Compound 3] (H-CFINNCP[Dab]G-NH2; disulfide 1-6) | 1.47 nM | 1.7 | + (key: +: selective hV1a receptor agonist; EC50 hOT/hV1a ratio not determined due to very low agonist efficacy (<30% compared to AVP) at the hOT receptor) | – | –
– | CC[C@H](C)[C@@H]1NC(=O)[C@H](Cc2ccccc2)NC(=O)[C@@H](N)CSSC[C@@H](C(=O)N2CCC[C@H]2C(=O)N[C@@H](CCCNC(C)C)C(=O)NCC(N)=O)NC(=O)[C@H](CC(N)=O)NC(=O)[C@H](CCC(N)=O)NC1=O [Compound 5] (H-CFIQNCP[Orn(iPr)]G-NH2; disulfide 1-6; N-terminus and C-terminus assumed) | 0.25 nM | 1.9 | – | 117 | –
– | CCNCCC[C@H](NC(=O)[C@@H]1CCCN1C(=O)[C@@H]1CSSC[C@H](N)C(=O)N[C@@H](Cc2ccccc2)C(=O)N[C@@H]([C@@H](C)CC)C(=O)N[C@@H](CCC(N)=O)C(=O)N[C@@H](CC(N)=O)C(=O)N1)C(=O)NCC(N)=O [Compound 6] (H-CFIQNCP[X1]G-NH2; disulfide 1-6; N-terminus and C-terminus assumed) | 0.29 nM | 1.9 | – | 86 | –
– | CC[C@H](C)[C@@H]1NC(=O)[C@H](Cc2ccccc2)NC(=O)[C@@H](N)CSSC[C@@H](C(=O)N2CCC[C@H]2C(=O)N[C@@H](CCCN)C(=O)NCC(N)=O)NC(=O)[C@H](CC(N)=O)NC(=O)[C@H](CCCC(N)=O)NC1=O [Compound 9] (H-CFI[Aad](NH2)NCP[Orn]G-NH2; disulfide 1-6) | 0.68 nM | 1.5 | + (key: +: selective hV1a receptor agonist; EC50 hOT/hV1a ratio not determined due to very low agonist efficacy (<30% compared to AVP) at the hOT receptor) | – | –
1.15 nM | CC[C@H](C)[C@@H]1NC(=O)[C@H](Cc2ccccc2)NC(=O)[C@@H](N)CSSC[C@@H](C(=O)N2CCC[C@H]2C(=O)N[C@@H](CCCN)C(=O)NCC(N)=O)NC(=O)[C@H](CC(N)=O)NC(=O)[C@H](CCC(=O)NOC)NC1=O [Compound 10] (H-CFI[X2]NCP[Orn]G-NH2; disulfide 1-6; N-terminus and C-terminus assumed) | – | 2.3 | – | 11 | –
– | CC[C@H](C)[C@@H]1NC(=O)[C@H](Cc2ccccc2)NC(=O)[C@@H](N)CSSC[C@@H](C(=O)N2CCC[C@H]2C(=O)N[C@@H](CCN)C(=O)NCC(N)=O)NC(=O)[C@H](CC(N)=O)NC(=O)[C@H](CCCC(N)=O)NC1=O [Compound 11] (H-CFI[Aad](NH2)NCP[Dab]G-NH2; disulfide 1-6) | 2.96 nM | 1.9 | + (key: +: selective hV1a receptor agonist; EC50 hOT/hV1a ratio not determined due to very low agonist efficacy (<30% compared to AVP) at the hOT receptor) | – | –
0.61 nM | CC[C@H](C)[C@@H]1NC(=O)[C@H](Cc2ccsc2)NC(=O)[C@@H](N)CSSC[C@@H](C(=O)N2CCC[C@H]2C(=O)N[C@@H](CCN)C(=O)NCC(N)=O)NC(=O)[C@H](CC(N)=O)NC(=O)[C@H](CCC(N)=O)NC1=O [Compound 15] (H-C[3Thi]IQNCP[Dab]G-NH2; disulfide 1-6) | – | 2.2 | – | 43 | –
5.99 nM | CC[C@H](C)[C@@H]1NC(=O)[C@H](Cc2ccccc2)NC(=O)[C@@H](N)CSSC[C@@H](C(=O)N2CCC[C@H]2C(=O)N[C@@H](CCCN)C(=O)NCC(N)=O)NC(=O)[C@H](CC(N)=O)NC(=O)[C@H](CCC(=O)NC)NC1=O [Compound 19] (H-CFIE(NHMe)NCP[Orn]G-NH2; disulfide 1-6) | – | 1.6 | – | – | + (selective hV1a receptor agonist; EC50 hOT/hV1a ratio not determined due to very low agonist efficacy (<30% compared to AVP) at the hOT receptor)
– | CC[C@H](C)[C@@H]1NC(=O)[C@H](Cc2ccco2)NC(=O)[C@@H](N)CSSC[C@@H](C(=O)N2CCC[C@H]2C(=O)N[C@@H](CCCN)C(=O)NCC(N)=O)NC(=O)[C@H](CC(N)=O)NC(=O)[C@H](CCC(N)=O)NC1=O [Compound 25] (H-C[Ala(2-furyl)]IQNCP[Orn]G-NH2; disulfide 1-6) | 1.4 nM | 2.0 | 23 | – | –
2.24 nM | CC[C@H](C)[C@@H]1NC(=O)[C@H](Cc2ccco2)NC(=O)[C@@H](N)CSSC[C@@H](C(=O)N2CCC[C@H]2C(=O)N[C@@H](CCN)C(=O)NCC(N)=O)NC(=O)[C@H](CC(N)=O)NC(=O)[C@H](CCC(N)=O)NC1=O [Compound 26] (H-C[Ala(2-furyl)]IQNCP[Dab]G-NH2; disulfide 1-6; N-terminus and C-terminus assumed) | – | 2.0 | – | 28 | –
1.45 nM | CC[C@H](C)[C@@H]1NC(=O)[C@H](Cc2ccccc2)NC(=O)[C@@H](N)CSSC[C@@H](C(=O)N2CCC[C@H]2C(=O)N[C@@H](CCCN)C(=O)NCC(N)=O)NC(=O)[C@H](CC(N)=O)NC(=O)[C@H](CC(N)=O)NC1=O [Compound 30] (H-CFINNCP[Orn]G-NH2; disulfide 1-6; N-terminus and C-terminus assumed) | – | 1.7 | – | – | + (selective hV1a receptor agonist; EC50 hOT/hV1a ratio not determined due to very low agonist efficacy (<30% compared to AVP) at the hOT receptor)
– | CC[C@H](C)[C@@H]1NC(=O)[C@H](Cc2cccs2)NC(=O)[C@@H](N)CSSC[C@@H](C(=O)N2CCC[C@H]2C(=O)N[C@@H](CCCNC(C)C)C(=O)NCC(N)=O)NC(=O)[C@H](CC(N)=O)NC(=O)[C@H](CCC(N)=O)NC1=O [Compound 34] (H-C[2Thi]IQNCP[Orn(iPr)]G-NH2; disulfide 1-6) | 0.73 nM | 2.0 | 72 | – | –
– | CC[C@H](C)[C@@H]1NC(=O)[C@H](Cc2ccccc2)NC(=O)[C@@H](N)CSSC[C@@H](C(=O)N2CCC[C@H]2C(=O)N[C@@H](CCCNC)C(=O)NCC(N)=O)NC(=O)[C@H](CC(N)=O)NC(=O)[C@H](CCC(N)=O)NC1=O [Compound 39] (H-CFIQNCP[Orn(Me)]G-NH2; disulfide 1-6; N-terminus and C-terminus assumed) | 0.21 nM | 1.9 | – | 178 | –
– | CCCNCCC[C@H](NC(=O)[C@@H]1CCCN1C(=O)[C@@H]1CSSC[C@H](N)C(=O)N[C@@H](Cc2ccccc2)C(=O)N[C@@H]([C@@H](C)CC)C(=O)N[C@@H](CCC(N)=O)C(=O)N[C@@H](CC(N)=O)C(=O)N1)C(=O)NCC(N)=O [Compound 40] (H-CFIQNCP[Orn(Pr)]G-NH2; disulfide 1-6; N-terminus and C-terminus assumed) | 0.27 nM | 2.0 | – | 88 | –
– | CC[C@H](C)[C@@H]1NC(=O)[C@H](Cc2ccccc2)NC(=O)[C@@H](N)CSSC[C@@H](C(=O)N2CCC[C@H]2C(=O)N[C@@H](CCCNC(C)C)C(=O)NCC(N)=O)NC(=O)[C@H](CC(N)=O)NC(=O)[C@H](CC(N)=O)NC1=O [Compound 41] (H-CFINNCP[Orn(iPr)]G-NH2; disulfide 1-6) | 0.98 nM | 2.6 | 53 | – | –
2.41 nM | CC[C@H](C)[C@@H]1NC(=O)[C@H](Cc2ccccc2)NC(=O)[C@@H](N)CSSC[C@@H](C(=O)N2CCC[C@H]2C(=O)N[C@@H](CCCNC)C(=O)NCC(N)=O)NC(=O)[C@H](CC(N)=O)NC(=O)[C@H](CC(N)=O)NC1=O [Compound 46] (H-CFINNCP[Orn(Me)]G-NH2; disulfide 1-6; N-terminus and C-terminus assumed) | – | 2.1 | – | – | + (selective hV1a receptor agonist; EC50 hOT/hV1a ratio not determined due to very low agonist efficacy (<30% compared to AVP) at the hOT receptor)
– | [Phe2,Orn8]OT [[Phe2, Orn8]OT, reference compound] | – | 1.9 | – | 60 | –
